Laboratory results reported in US11884650B2, “Substituted heterocyclic compounds” (BRISTOL-MYERS SQUIBB COMPANY, priority 2021, dated 2024).

Tests used:
[1] = Brain Penetration In Vivo Assay; set-up: species or system C57BL6 wild-type mice; conditions: C57BL6, brain and plasma, 10 mg/kg, mouse, 10 mpk, po, read-out: Ratio of exposure in brain to plasma
Experimental: Brain Penetration In Vivo Assay
A pharmacokinetic study was performed using C57BL6 wild-type mice (n=3 per experiment) to determine brain and plasma exposure of compounds of the invention. The compound was administered orally in a solution of 5% ETHANOL; 90% PEG 300; 5% TPGS at 5 […] for a final concentration. of 10 mg/kg. Mice were euthanized 1 hour post-dose and plasma and brain were collected and frozen for analysis. Brain tissues were homogenized in a 1:1 volume of blank C57BL6 mouse plasma. Concentrations of the compound in plasma and brain homogenate were determined by LC-MS analysis.

in vitro = conditions: human, Caco-2, pH 7.4
[2] = tested on: IFNα-induced pSTAT5 in human whole blood (CD3 positive population); assay: IFNα-Induced STAT Phosphorylation in Human Whole Blood; assay type: cell-based; conditions: 1 h incubation with compound, 1000 U/mL IFNα A/D for 15 min, read-out: Human Whole blood IFNa pSTAT5 IC50
Experimental: IFNα-Induced STAT Phosphorylation in Human Whole Blood
After an hour long incubation with compound, human whole blood (drawn with ACD-A as anticoagulant) was stimulated with 1000 U/mL recombinant human IFNα A/D (R&D Systems 11200-2) for 15 min. The stimulation was stopped by adding Fix/Lyse buffer (BD 558049). Cells were stained with a CD3 FITC antibody (BD 555916), washed, and permeabilized on ice using Perm III buffer (BD 558050). Cells were then stained with an Alexa-Fluor 647 pSTAT5 (pY694) antibody (BD 612599) for 60 min prior to analysis on the iQue Plus. The amount of pSTAT5 expression was quantitated by median fluorescence intensity after gating on the CD3 positive population.

Caco-2 cells = conditions: human, Caco-2, 2 h, 3 μM, pH 7.4

Molecule	Kp at 1 h [1]	Papp A→B at 2 h, 3 μM (in vitro) [×10⁻⁶ cm/s]	efflux ratio at 2 h, 3 μM (in vitro)	IC50 [2] [nM]	Caco-2 AB (Caco-2 cells) [nm/s]
CCC(=O)c1cnc(NC(=O)C2CC2)cc1Nc1nccc(-c2ncn(C)n2)c1OC [A, reference compound]	0.14	–	–	–	–
CCC(=O)c1cnc(NC(=O)C2CC2)cc1Nc1cccc(-c2ncn(C)n2)c1OC [B, reference compound]	0.05	–	–	–	–
N-(4-((3-fluoro-2-methoxy-3-(2-methyl-2H-1,2,3-triazol-4-yl)phenyl)amino)-5-propionylpyridin-2-yl)cyclopropanecarboxamide [Example 5]	–	–	–	710	258
N-(4-((3-methyl-2-methoxy-3-(2-methyl-2H-1,2,3-triazol-4-yl)phenyl)amino)-5-propionylpyridin-2-yl)cyclopropanecarboxamide [Example 6]	–	–	–	770	152

More lines, main results first:

Kp at 1 h [1]	Papp A→B at 2 h, 3 μM (in vitro) [×10⁻⁶ cm/s]	efflux ratio at 2 h, 3 μM (in vitro)	IC50 [2] [nM]	Molecule	Caco-2 AB (Caco-2 cells) [nm/s]
3.1	66.3	0.1	37	CCC(=O)c1cnc(NC(=O)C2CC2)cc1Nc1nccc(-c2cnn(C)n2)c1OC [Example 1, N-(4-((3-methoxy-4-(2-methyl-2H-1,2,3-triazol-4-yl)pyridin-2-yl)amino)-5-propionylpyridin-2-yl)cyclopropanecarboxamide]	–
–	18	0.2	400	CCC(=O)c1cnc(NC(=O)C2CC2)cc1Nc1nccc(-c2cnn(C3CC3)n2)c1OC [Example 2, N-(4-((3-methoxy-4-(2-cyclopropyl-2H-1,2,3-triazol-4-yl)pyridin-2-yl)amino)-5-propionylpyridin-2-yl)cyclopropanecarboxamide]	–
3	18.3	0.5	460	CCC(=O)c1cnc(NC(=O)C2CC2)cc1Nc1cccc(-c2cnn(C)n2)c1OC [Example 3, N-(4-((2-methoxy-3-(2-methyl-2H-1,2,3-triazol-4-yl)phenyl)amino)-5-propionylpyridin-2-yl)cyclopropanecarboxamide]	–
–	54.5	0.4	280	CCC(=O)c1cnc(NC(=O)C2CC2)cc1Nc1ccc(F)c(-c2cnn(C)n2)c1OC [Example 4, N-(4-((4-fluoro-2-methoxy-3-(2-methyl-2H-1,2,3-triazol-4-yl)phenyl)amino)-5-propionylpyridin-2-yl)cyclopropanecarboxamide]	–
